The target of the assay is Phosphodiesterase 1B (PDE1B). The assay can be described thus: Measurement of PDE1B inhibition in vitro using IMAP phosphodiesterase assay kit. It counts as biochemical, bovine. The note with it: PDE1 inhibitory activity, IMAP fluorescence polarization, cGMP-fluorescein substrate. An excerpt: Measurement of PDE1B Inhibition in Vitro Using IMAP Phosphodiesterase Assay Kit
Phosphodiesterase 1B (PDE1B) is a calcium/calmodulin dependent phosphodiesterase enzyme that converts cyclic guanosine monophosphate (cGMP) to 5′-guanosine monophosphate (5′-GMP). PDE can also convert a modified cGMP substrate, such as the fluorescent molecule cGMP-fluorescein, to the corresponding GMP-fluorescein. The generation of GMP-fluorescein from cGMP-fluorescein can be quantitated, using, for example, the IMAP (Molecular Devices, Sunnyvale, Calif.) immobilized-metal affinity particle reagent.
Briefly, the IMAP reagent binds with high affinity to the free 5′-phosphate that is found in GMP-fluorescein and not in cGMP-fluorescein. […] Small fluorophores that are bound up in a large, slowly tumbling, complex can be distinguished from unbound fluorophores, because the photons emitted as they fluoresce retain the same polarity as the photons used to excite the fluorescence.
In the phosphodiesterase assay, cGMP-fluorescein, which cannot be bound to IMAP, and therefore retains little fluorescence polarization, is converted to GMP-fluorescein, which, when bound to IMAP, yields a large increase in fluorescence polarization (Δmp). Inhibition of phosphodiesterase, therefore, is detected as a decrease in Δmp. […]
A decrease in GMP concentration, measured as decreased Δmp, is indicative of inhibition of PDE activity.
In general terms: Polarisation of emitted light reports the rotation of a fluorescent probe.

`C/N=c1/c2c(Nc3ccccc3)n(Cc3ccc(-c4ccccn4)cc3)nc2n(CC(C)C)c(=O)n1C` [Example 2, 7-Isobutyl-5-methyl-4-(methylimino)-3-(phenylamino)-2-(4-(pyridin-2-yl)benzyl)-4,5-dihydro-2H-pyrazolo[3,4-d]pyrimidin-6(7H)-one] registered an IC50 of less than 200 nM.

A word on the IC50: it is the concentration that inhibits the measured activity by half. Read a high IC50 as weaker potency in that assay.

Source of the values: patent US8697710B2, “Optionally substituted 3-amino-4-(thioxo or imino)-4,5-dihydro-2H-pyrazolo [3,4-d]pyrimidin-6(7H)-ones” (Intra-Cellular Therapies, Inc., priority 2008, dated 2014).
